Measurements reported in patent US11542288B2, “Antiviral compounds” (priority 2020, dated 2023).
Where two headings read alike, the source gives them in different places.

Key:
[1] = target: T1, HIV-1 protease 10 Mutant (Human immunodeficiency virus type 1 group M subtype B, UniProt P12497); test: HIV enzyme inhibition assay (Ki), 10 Mutant variant; assay type: biochemical; conditions: drug-resistant protease variant 10 Mutant
T1 construct: onto NL4-3 wild-type protease on a pET11a plasmid with codon optimization for protein expression in Escherichia coli; A Q7K mutation was included to prevent autoproteolysis

[2] = target: T2, HIV-1 protease I50V/A71V (Human immunodeficiency virus type 1 group M subtype B, UniProt P12497, A559V/I538V/Q495K); test: HIV enzyme inhibition assay (Ki), I50V/A71V variant; assay type: biochemical; conditions: drug-resistant protease variant I50V/A71V
T2 construct: onto NL4-3 wild-type protease on a pET11a plasmid; made in house

[3] = target: T3, HIV-1 protease I84V (Human immunodeficiency virus type 1 group M subtype B, UniProt P12497, I572V/Q495K); test: HIV enzyme inhibition assay (Ki), I84V variant; assay type: biochemical; conditions: drug-resistant protease variant I84V
T3 construct: onto NL4-3 wild-type protease on a pET11a plasmid; made in house

[4] = target: T4, HIV-1 protease 11 Mutant (Human immunodeficiency virus type 1 group M subtype B, UniProt P12497); test: HIV enzyme inhibition assay (Ki), 11 Mutant variant; assay type: biochemical; conditions: drug-resistant protease variant 11 Mutant
T4 construct: onto NL4-3 wild-type protease on a pET11a plasmid with codon optimization for protein expression in Escherichia coli; A Q7K mutation was included to prevent autoproteolysis

[5] = target: T5, HIV-1 protease 8 Mutant (Human immunodeficiency virus type 1 group M subtype B, UniProt P12497); test: HIV enzyme inhibition assay (Ki), 8 Mutant variant; assay type: biochemical; conditions: drug-resistant protease variant 8 Mutant
T5 construct: onto NL4-3 wild-type protease on a pET11a plasmid with codon optimization for protein expression in Escherichia coli; A Q7K mutation was included to prevent autoproteolysis

[6] = target: HIV-1 protease KY24 (Human immunodeficiency virus type 1, UniProt P12497); conditions: read-out: Ki KY24; drug-resistant protease variant KY24
[7] = system: wild-type HIV-1; test: HIV antiviral assay (293T / TZM-BL luciferase); assay type: cell-based; conditions: read-out: Antiviral WT EC50
[8] = target: T6, HTLV-1 protease (Human T-cell leukemia virus type I, UniProt Q82134, L40I); conditions: read-out: Ki against HTLV-1 protease; 1 μM protein, MA/CA FRET substrate
T6 sequence (Q82134 entry or part of it L40I): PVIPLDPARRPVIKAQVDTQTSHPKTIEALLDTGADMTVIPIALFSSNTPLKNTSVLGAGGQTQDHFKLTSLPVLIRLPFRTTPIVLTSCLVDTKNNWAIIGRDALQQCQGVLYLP

[9] = target: T6, HTLV-1 protease; test: biochemical

SMILES: CCOP(=O)(COc1ccc(C[C@H](NC(=O)O[C@H]2CO[C@H]3OCC[C@H]32)[C@H](O)CN(CC(CC)CC)S(=O)(=O)c2ccc(OC)cc2)cc1)OCC [Example 8, (3R,3aS,6aR)-hexahydrofuro[2,3-b]furan-3-yl ((2S,3R)-1-(4-((diethoxyphosphoryl)methoxy)phenyl)-4-((N-(2-ethylbutyl)-4-methoxyphenyl)sulfonamido)-3-hydroxybutan-2-yl)carbamate]
- Ki [1]: 1.26 ± 0.08 nM
- Ki [2]: < 0.005 nM
- Ki [3]: < 0.005 nM
- Ki [4]: 2.2 ± 0.2 nM
- Ki [5]: 0.77 ± 0.06 nM
- Ki [6]: 0.16 ± 0.04 nM
- EC50 [7]: 5.15 nM

SMILES: CCOP(=O)(COc1ccc(C[C@H](NC(=O)O[C@H]2CO[C@H]3OCC[C@H]32)[C@H](O)CN(CC(CC)CC)S(=O)(=O)c2ccc3c(c2)OCO3)cc1)OCC [Example 4, (3R,3aS,6aR)-hexahydrofuro[2,3-b]furan-3-yl ((2S,3R)-1-(4-((diethoxyphosphoryl)methoxy)phenyl)-4-(N-(2-ethylbutyl)benzo[d][1,3]dioxole-5-sulfonamido)-3-hydroxybutan-2-yl)carbamate]
- Ki [1]: 1.6 ± 0.06 nM
- Ki [2]: < 0.005 nM
- Ki [3]: < 0.005 nM
- Ki [4]: 6.9 ± 0.5 nM
- Ki [5]: 0.37 ± 0.03 nM
- Ki [6]: 0.08 ± 0.03 nM
- EC50 [7]: 3.11 nM

SMILES: CCOP(=O)(COc1ccc(C[C@H](NC(=O)O[C@H]2CO[C@H]3OCC[C@H]32)[C@H](O)CN(CC(C)C)S(=O)(=O)c2ccc3c(c2)OCO3)cc1)OCC [Example 9, (3R,3aS,6aR)-hexahydrofuro[2,3-b]furan-3-yl ((2S,3R)-1-(4-((diethoxyphosphoryl)methoxy)phenyl)-3-hydroxy-4-(N-isobutylbenzo[d][1,3]dioxole-5-sulfonamido)butan-2-yl)carbamate]
- Ki [1]: 4.5 ± 0.8 nM
- Ki [2]: < 0.005 nM
- Ki [3]: < 0.005 nM
- Ki [4]: 63.5 ± 15.2 nM
- Ki [5]: 2.2 ± 0.5 nM
- Ki [6]: 0.36 ± 0.05 nM
- EC50 [7]: 5.67 nM

SMILES: CCOP(=O)(COc1ccc(C[C@H](NC(=O)O[C@H]2CO[C@H]3OCC[C@H]32)[C@H](O)CN(C[C@@H](C)CC)S(=O)(=O)c2ccc3ncsc3c2)cc1)OCC [Example 11, (3R,3aS,6aR)-hexahydrofuro[2,3-b]furan-3-yl ((2S,3R)-1-(4-((diethoxyphosphoryl)methoxy)phenyl)-3-hydroxy-4-(N—((S)-2-methylbutyl)benzo[d]thiazole-6-sulfonamido)butan-2-yl)carbamate]
- Ki [1]: 1.2 ± 0.4 nM
- Ki [2]: < 0.005 nM
- Ki [3]: < 0.005 nM
- Ki [4]: 9.03 ± 4.21 nM
- Ki [5]: 1.8 ± 0.5 nM
- Ki [6]: 0.09 ± 0.01 nM
- EC50 [7]: 9.93 nM

SMILES: CCOP(=O)(COc1ccc(C[C@H](NC(=O)O[C@H]2CO[C@H]3OCC[C@H]32)[C@H](O)CN(CC(CC)CC)S(=O)(=O)c2ccc(CO)cc2)cc1)OCC [Example 13, (3R,3aS,6aR)-hexahydrofuro[2,3-b]furan-3-yl ((2S,3R)-1-(4-((diethoxyphosphoryl)methoxy)phenyl)-4-((N-(2-ethylbutyl)-4-(hydroxymethyl)phenyl)sulfonamido)-3-hydroxybutan-2-yl)carbamate]
- Ki [1]: 32.1 ± 4.3 nM
- Ki [2]: < 0.005 nM
- Ki [3]: < 0.005 nM
- Ki [4]: 81.2 ± 10.8 nM
- Ki [5]: 2.2 ± 0.4 nM
- Ki [6]: 0.6 ± 0.1 nM
- EC50 [7]: 17 nM

SMILES: CCOP(=O)(COc1ccc(C[C@H](NC(=O)O[C@H]2CO[C@H]3OCC[C@H]32)[C@H](O)CN(C[C@@H](C)CC)S(=O)(=O)c2ccc(OC)cc2)cc1)OCC [Example 3, (3R,3aS,6aR)-hexahydrofuro [2,3-b]furan-3-yl ((2S,3R)-1-(4-((diethoxyphosphoryl)methoxy)phenyl)-3-hydroxy-4-((4-methoxy-N—((S)-2-methylbutyl)phenyl)sulfonamido)butan-2-yl)carbamate]
- Ki [1]: 3.7 ± 0.3 nM
- Ki [2]: < 0.005 nM
- Ki [3]: < 0.005 nM
- Ki [4]: 10.5 ± 0.9 nM
- Ki [5]: 0.78 ± 0.07 nM
- Ki [6]: 0.16 ± 0.02 nM
- EC50 [7]: 7.8 nM

SMILES: CCOP(=O)(COc1ccc(C[C@H](NC(=O)O[C@H]2CO[C@H]3OCC[C@H]32)[C@H](O)CN(C[C@@H](C)CC)S(=O)(=O)c2ccc(CO)cc2)cc1)OCC [Example 6, (3R,3aS,6aR)-hexahydrofuro[2,3-b]furan-3-yl ((2S,3R)-1-(4-((diethoxyphosphoryl)methoxy)phenyl)-3-hydroxy-4-((4-(hydroxymethyl)-N—((S)-2-methylbutyl)phenyl)sulfonamido)butan-2-yl)carbamate]
- Ki [1]: 52.9 ± 4.2 nM
- Ki [2]: < 0.005 nM
- Ki [3]: < 0.005 nM
- Ki [4]: 103 ± 3 nM
- Ki [5]: 4.98 ± 0.4 nM
- Ki [6]: 1.89 ± 0.17 nM
- EC50 [7]: 27.3 nM

SMILES: CCOP(=O)(COc1ccc(C[C@H](NC(=O)O[C@H]2CO[C@H]3OCC[C@H]32)[C@H](O)CN(CC(C)C)S(=O)(=O)c2ccc3ncsc3c2)cc1)OCC [Example 10, (3R,3aS,6aR)-hexahydrofuro[2,3-b]furan-3-yl ((2S,3R)-1-(4-((diethoxyphosphoryl)methoxy)phenyl)-3-hydroxy-4-(N-isobutylbenzo [d]thiazole-6-sulfonamido)butan-2-yl)carbamate]
- Ki [1]: 1.9 ± 0.3 nM
- Ki [2]: < 0.005 nM
- Ki [3]: < 0.005 nM
- Ki [4]: 15 ± 3.5 nM
- Ki [5]: 0.93 ± 0.2 nM
- Ki [6]: 0.23 ± 0.02 nM
- EC50 [7]: 10.4 nM

SMILES: CCOP(=O)(COc1ccc(C[C@H](NC(=O)O[C@H]2CO[C@H]3OCC[C@H]32)[C@H](O)CN(C[C@@H](C)CC)S(=O)(=O)c2ccc(N)cc2)cc1)OCC [Example 5, (3R,3aS,6aR)-hexahydrofuro[2,3-b]furan-3-yl ((2S,3R)-4-((4-amino-N—((S)-2-methylbutyl)phenyl)sulfonamido)-1-(4-((diethoxyphosphoryl)methoxy)phenyl)-3-hydroxybutan-2-yl)carbamate]
- Ki [1]: 146 ± 10 nM
- Ki [2]: < 0.005 nM
- Ki [3]: < 0.005 nM
- Ki [4]: 259 ± 17 nM
- Ki [5]: 13.3 ± 3.5 nM
- Ki [6]: 2.31 ± 0.09 nM
- EC50 [7]: 22.9 nM

SMILES: CCOP(=O)(COc1ccc(C[C@H](NC(=O)O[C@H]2CO[C@H]3OCC[C@H]32)[C@H](O)CN(CC(CC)CC)S(=O)(=O)c2ccc3ncsc3c2)cc1)OCC [Example 12, (3R,3aS,6aR)-hexahydrofuro[2,3-b]furan-3-yl ((2S,3R)-1-(4-((diethoxyphosphoryl)methoxy)phenyl)-4-(N-(2-ethylbutyl)benzo[d]thiazole-6-sulfonamido)-3-hydroxybutan-2-yl)carbamate]
- Ki [1]: 0.24 ± 0.09 nM
- Ki [2]: < 0.005 nM
- Ki [3]: < 0.005 nM
- Ki [5]: 0.25 ± 0.08 nM
- EC50 [7]: 10.7 nM

SMILES: CC(C)(C)NC(=O)[C@@H]1CN(Cc2cccnc2)CCN1C[C@@H](O)C[C@@H](Cc1ccccc1)C(=O)N[C@H]1c2ccccc2C[C@H]1O [IDV, indinavir, reference compound]
- Ki [8]: 62700 nM
- Ki [9]: 60000 nM
